Assays:
[1] = Pharmacokinetics in plasma, CSF and cortical brain tissue after i.p. injection
Experimental: (§1) Blood (approximately 100 µl) was collected from the vena facialis in anaesthetised animals, followed by CSF sampling (approximately 10 µl) from the cisterna magna under pentobarbital anaesthesia (1:25 in saline, 10 ml/kg, i.p., Narcoren, Boehringer Ingelheim, Germany). Subsequently, the brain was removed and its anterior third (including the medial prefrontal and anterior cingulate cortices) dissected and transferred into Precellys tubes cooled in liquid nitrogen. For plasma extraction, blood was transferred to EDTA coated tubes and centrifuged for 10 min at 10,000 rpm at 4 °C. Maximal plasma concentration (Cmax), time taken to reach maximal plasma concentration (Tmax) and mean residence time were assessed using liquid chromatography–mass spectrometry analysis executed on the HP1200 (Agilent, CA, USA) coupled to the API 6500 (AB Sciex, Germany) using BI00001052 (Boehringer Ingelheim) as internal standard. In short, 5 µl of plasma or CSF sample were mixed with 10 nl internal standard. 70 µl acetonitrile (ACN)/methanol (1:1) was added, kept at −20 °C for 15 min and centrifuged for 4 min at 4000 rpm at 4 °C. 30 µl of the supernatant was mixed with 170 µl 0.1% formic acid. Brain homogenization was executed by Precellys Evolution (Bertin) after adding ACN/methanol (1:1)/aq.dest. (3:1) to each brain sample with a volume corresponding to 4 parts of the brain weight, followed by centrifugation for 1 min at 4000 rpm at 4 °C. 5 µl of the supernatant was mixed with 10 nl of internal standard.

C57BL/6 J mice = assay: 5-choice serial-reaction-time task (5-CSRTT), unspecific behavioural effects; format: in vivo
Experimental: Training was performed in 16 standard mouse Bussey-Saksida touchscreen chambers (model #80614, Campden Instruments Ltd., UK), previously described in detail. In short, each trapezoidal operant chamber was placed in a sound- and light- attenuating box individually equipped with a house light, a reward magazine with light, a liquid reward dispenser, a sound generator, a perforated stainless steel floor, and a touchscreen placed at the wide end of the chamber and covered permanently by a black acrylic glass 5-hole mask. The reward magazine, located opposite the touchscreen, was connected to a liquid dispenser delivering strawberry milk (Yazoo®). Infrared break-beam sensors located inside and on the front of the food magazine as well as on the touch-screen walls allowed the detection of reward delivery and the animal’s locomotor activity, respectively. Four individual chambers were connected to one computer for controlling the task flow using the graphical task design software ABET II Touch (model #89505, Campden Instruments Ltd., UK) and the WhiskerServer software (Cambridge University Technical Services Ltd., UK)[27].
Mice were habituated to the chambers for three consecutive 20-min sessions during which the house light and magazine light were permanently on. At the start of each session, 30 µl strawberry milk was delivered. Every 15 s after head entry into the magazine, an additional 30 µl strawberry milk was delivered. Head entry turned the magazine light off.
The 5-CSRTT training protocol, originally designed for rats[28], was similar as that previously described for mice[29]–[31]. The training comprised six stages with 30-min sessions initiated by the illumination of the house and magazine lights and delivery of 20 µl strawberry milk. Collection of the reward switched the magazine light off and started the first trial.
In the first stage, the middle window was permanently illuminated, which was turned off when touched, followed by reward delivery (20 µl) with illumination of the magazine light. Head entry switched off the magazine light. Mice performing 30 trials in a session continued to the next stage. Training sessions in stages 2–6 comprised a maximum of 120 trials. Collection of the reward initiated the inter-trial interval (ITI) followed by the illumination of one pseudo-randomly selected aperture for a fixed stimulus duration (SD). Any touch to the screen during the ITI was classified as a premature response which was not counted as a trial and terminated the current trial. Following stimulus detection, a nose poke to the corresponding aperture within a fixed time interval (limited hold; LH) was required for reward delivery. Premature responses made during the ITI, incorrect responses, and the omission of a response within the LH led to a timeout (TO, house light switched off for 4 s) instead of delivery of reward. Correct, incorrect and omitted responses defined the total number of trials. […] The criteria to pass the last stage and reach baseline performance were to complete >30 correct trials, with ≥80% accuracy and ≤30% omissions. Percentage accuracy was defined as the number of correct trials divided by the sum of correct and incorrect trials. Percentage omissions were calculated in terms of the number of completed trials. Premature responding was calculated as a percentage of completed trials. Perseveration was calculated as the number of additional responses made in the same aperture following a correct response. Additionally, the correct-response latency (time from stimulus presentation to correct response) and reward latency (time from correct response to reward collection) were measured across all trials.
Either one or up to three days before, as well as one day after the task challenge, mice were trained at baseline conditions to check for any unexpected changes in task performance (e.g. by long lasting drug- or challenge-induced effects). […]

in vivo = conditions: mouse, ip
Experimental: as §1

M2 muscarinic receptor = biological target: T1, M2 muscarinic receptor (Homo sapiens, UniProt P08172); assay: Off-target radioligand binding; conditions: 10 μM compound
T1 construct: expressed in transfected cells; host or cells: HEK-293 or CHO

5-HT3 serotonin receptor = 5-HT3 serotonin receptor (Homo sapiens, UniProt P46098); assay: Off-target radioligand binding; conditions: 10 μM compound
[2] = biological target: T2, 5-HT1A serotonin receptor (Homo sapiens, UniProt P08908); assay: Off-target radioligand binding; conditions: 10 μM compound
T2 construct: expressed in transfected cells; host or cells: HEK-293 or CHO

PDE4D2 = PDE4D2 (Homo sapiens, UniProt Q08499); assay: Off-target enzyme assay; format: biochemical; conditions: 10 μM compound, not shown
D2 dopamine receptor = biological target: T3, D2 dopamine receptor (Homo sapiens, UniProt P14416); assay: Off-target radioligand binding; conditions: 10 μM compound
T3 construct: expressed in transfected cells; host or cells: HEK-293 or CHO

COX2 = COX2 (Homo sapiens, UniProt P35354); assay: Off-target enzyme assay; format: biochemical; conditions: 10 μM compound, not shown
H1 histamine receptor = biological target: T4, H1 histamine receptor (Homo sapiens, UniProt P35367); assay: Off-target radioligand binding; conditions: 10 μM compound
T4 construct: expressed in transfected cells; host or cells: HEK-293 or CHO

α1A adrenoreceptor = biological target: T5, α1A adrenoreceptor (Homo sapiens, UniProt P35348); assay: Off-target radioligand binding; conditions: 10 μM compound
T5 construct: expressed in transfected cells; host or cells: HEK-293 or CHO

[3] = biological target: T6, 5-HT2B serotonin receptor (Homo sapiens, UniProt P41595); assay: Off-target radioligand binding; conditions: 10 μM compound
T6 construct: expressed in transfected cells; host or cells: HEK-293 or CHO

[4] = tested on: 5-HT1B serotonin receptor; assay: Off-target radioligand binding; design: species or system human; conditions: 10 μM compound
κ opioid receptor = assay: Off-target radioligand binding; design: species or system human; conditions: 10 μM compound
D1 dopamine receptor = biological target: T7, D1 dopamine receptor (Homo sapiens, UniProt P21728); assay: Off-target radioligand binding; conditions: 10 μM compound
T7 construct: expressed in transfected cells; host or cells: HEK-293 or CHO

AChE = AChE (Homo sapiens, UniProt P22303); conditions: 10 μM compound, not shown
Lck kinase = Lck kinase (Homo sapiens, UniProt P06239); assay: Off-target enzyme assay; format: biochemical; conditions: 10 μM compound, not shown
COX1 = COX1 (Homo sapiens, UniProt P23219); assay: Off-target enzyme assay; format: biochemical; conditions: 10 μM compound, not shown
M1 muscarinic receptor = biological target: T8, M1 muscarinic receptor (Homo sapiens, UniProt P11229); assay: Off-target radioligand binding; conditions: 10 μM compound
T8 construct: expressed in transfected cells; host or cells: HEK-293 or CHO

δ opioid receptor = biological target: T9, δ opioid receptor (Homo sapiens, UniProt P41143); assay: Off-target radioligand binding; conditions: 10 μM compound
T9 construct: expressed in transfected cells; host or cells: HEK-293 or CHO

[5] = biological target: T10, 5-HT2A serotonin receptor (Homo sapiens, UniProt P28223); assay: Off-target radioligand binding; conditions: 10 μM compound
T10 construct: expressed in transfected cells; host or cells: HEK-293 or CHO
Experimental: Receptors and transporters of interest were overexpressed in either human recombinant human embryonic kidney (HEK)-293 or Chinese hamster ovary (CHO) cells. […] Results are expressed as percent inhibition of control-specific binding of the radioactively labelled ligand specific for the respective target. For enzyme inhibition, the effect was calculated as a percent inhibition of control enzyme activity. […] All presented values are the mean of two experiments.

hM4Di = biological target: T11, hM4Di (Homo sapiens, UniProt P08173, A203G/Y113C); assay: FLIPR Ca2+ oscillation assay in primary rat neuronal cultures transduced with hM4Di; format: cell-based; conditions: reduction of Ca2+ oscillation frequency, hM4Di-transduced rat primary neurons, Hill fit; read-out: half maximal effective concentration (EC50) at hM4Di
T11 construct: expressed in transfected cells; host or cells: primary cortical neurons of embryonic (E18) Sprague-Dawley rats, AAV-transduced
T11 sequence (P08173 1-479 Y113C/A203G): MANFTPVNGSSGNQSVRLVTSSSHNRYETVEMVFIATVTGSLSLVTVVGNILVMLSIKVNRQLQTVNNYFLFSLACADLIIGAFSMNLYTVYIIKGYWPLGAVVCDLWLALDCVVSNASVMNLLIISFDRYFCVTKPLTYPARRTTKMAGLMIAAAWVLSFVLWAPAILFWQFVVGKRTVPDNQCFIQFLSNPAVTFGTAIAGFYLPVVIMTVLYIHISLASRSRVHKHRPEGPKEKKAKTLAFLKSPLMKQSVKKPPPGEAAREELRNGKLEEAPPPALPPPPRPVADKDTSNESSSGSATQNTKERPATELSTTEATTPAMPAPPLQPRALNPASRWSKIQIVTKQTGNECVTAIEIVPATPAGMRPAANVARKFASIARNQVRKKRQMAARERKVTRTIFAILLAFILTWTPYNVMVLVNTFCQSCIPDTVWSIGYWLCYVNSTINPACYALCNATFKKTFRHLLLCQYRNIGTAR
Experimental: Briefly, cortices were dissected from embryonic brains, meninges were removed, and cortices transferred into ice-cold dissociation buffer (2 mM kynurenic acid, 10 mM HEPES, 20 mM MgCl2 (Fluka, Germany) and 33.4 mM Glucose in Hank’s Balanced Salt Solution (HBSS), pH 7.4 (Gibco, Thermo Fischer Scientific, Massachusetts, USA). Cortices were then dissociated in 20 units/ml papain solution (5.5 mM L- Cysteine hydrochloride, 1.1 mM ethylenediamine tetra-acetic acid [EDTA], 0.067 mM 2-Mercaptoethanol in Minimum Essential Medium [MEM]) for 15 min at 37 °C. Cortices were washed twice by adding 20 ml plating medium (1:50 foetal calve serum, 1:100 penicillin/streptomycin and 1:100 GlutaMax in MEM) followed by cell filtration using a 70 µm cell strainer (Corning, model #352350, Merck, Germany) to obtain a single-cell suspension. Dissociated cells were re-suspended in serum-free Neurobasal medium with Glutamax and B27 supplement (Gibco) and plated on PDL-coated 96 MTPs (Corning #356640). Virus (ssAAV-1/2-hSyn1-hM4D[Gi]_mCherry-WPRE-hGHp[A]) transduction was performed immediately after plating. Cells were maintained at 37 °C (5% CO2 and 10% O2) in a humidified incubator. A half feed medium change was done on DIV8. Final assay conditions used for evaluating activity of compounds were 0.95 × 10^5 cells/cm^2, transduced with 10.000 multiplicity of infection and measured on DIV9.
Medium was removed and cells were incubated in assay buffer (HBSS, Gibco, 10 mM HEPES, pH 7.4) containing 4 µM Fluo-4AM (Thermo Fischer Scientific) and 0.1% Pluronic F-127 (Thermo Fischer Scientific #P3000MP) for 1 h at room temperature in the dark. Loading buffer was then replaced with assay buffer. After 10 min, assay plates were measured in the FLIPR tetra (Molecular Devices, California, USA) using green fluorescence filter settings (excitation 470–495 nm, emission 515–575 nm). Fluorescence signals were recorded at 1 s intervals (0.4 s exposure time). Compound addition was automated in a single addition protocol. Tested compounds (concentrations:0.3 nM–1 µM; retigabine at 30 µM) were added after recording a baseline response for 5 min followed by another 5 min for recording compound effects on Ca^2+ oscillations. Each compound dose was repeated on three individual plates in duplicates.
Time-series raw fluorescence traces recorded from the FLIPR assay were analysed by detecting Ca^2+ peaks based on a fixed amplitude threshold[19]. The change in oscillation frequency was determined by counting the number of peaks in a defined time interval (5 min) before and after addition of the tested compound and calculating the Ca^2+ oscillations frequency from their number. […] For visualisation, all data were transferred to GraphPad Prism 7 (Graphpad Software, Inc., CA, USA).

hM3Dq = tested on: hM3Dq; design: method as in PMID 25587888; conditions: FLIPR assay; cited from earlier work
M3 muscarinic receptor = biological target: T12, M3 muscarinic receptor (Homo sapiens, UniProt P20309); assay: Off-target radioligand binding; conditions: 10 μM compound
T12 construct: expressed in transfected cells; host or cells: HEK-293 or CHO

PDE3A = PDE3A (Homo sapiens, UniProt Q14432); assay: Off-target enzyme assay; format: biochemical; conditions: 10 μM compound, not shown
μ opioid receptor = biological target: T13, μ opioid receptor (Homo sapiens, UniProt P35372); assay: Off-target radioligand binding; conditions: 10 μM compound
T13 construct: expressed in transfected cells; host or cells: HEK-293 or CHO

[6] = brain (cortical tissue), 3.5 mg/kg
[7] = mice, 15 min after 3.0 mg/kg Cmpd-21 i.p.
[8] = mice, 60 min after 3.0 mg/kg Cmpd-21 i.p.

T5 sequence (P35348 whole entry): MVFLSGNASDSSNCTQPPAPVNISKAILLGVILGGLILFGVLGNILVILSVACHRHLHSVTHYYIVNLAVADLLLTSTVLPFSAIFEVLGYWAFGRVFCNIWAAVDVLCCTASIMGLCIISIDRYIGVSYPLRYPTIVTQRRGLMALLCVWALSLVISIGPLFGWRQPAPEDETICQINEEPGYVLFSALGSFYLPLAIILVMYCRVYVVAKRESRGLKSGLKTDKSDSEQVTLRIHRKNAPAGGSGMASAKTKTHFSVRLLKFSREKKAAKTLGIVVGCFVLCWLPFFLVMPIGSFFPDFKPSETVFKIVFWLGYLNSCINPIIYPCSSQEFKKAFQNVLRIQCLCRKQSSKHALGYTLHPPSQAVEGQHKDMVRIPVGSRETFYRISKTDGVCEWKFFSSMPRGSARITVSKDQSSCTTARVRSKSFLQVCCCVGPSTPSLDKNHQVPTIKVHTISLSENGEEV
T9 sequence (P41143 whole entry): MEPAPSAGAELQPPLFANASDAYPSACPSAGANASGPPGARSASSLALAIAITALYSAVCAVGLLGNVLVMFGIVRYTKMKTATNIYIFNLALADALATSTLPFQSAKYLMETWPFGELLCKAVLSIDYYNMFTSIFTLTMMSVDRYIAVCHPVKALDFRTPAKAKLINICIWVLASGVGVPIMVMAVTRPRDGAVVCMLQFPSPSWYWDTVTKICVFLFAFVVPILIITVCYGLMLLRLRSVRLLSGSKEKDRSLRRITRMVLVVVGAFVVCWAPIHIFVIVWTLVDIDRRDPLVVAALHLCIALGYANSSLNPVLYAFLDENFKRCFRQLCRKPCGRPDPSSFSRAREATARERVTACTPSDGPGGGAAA
5-HT3 serotonin receptor, sequence (P46098 24-478): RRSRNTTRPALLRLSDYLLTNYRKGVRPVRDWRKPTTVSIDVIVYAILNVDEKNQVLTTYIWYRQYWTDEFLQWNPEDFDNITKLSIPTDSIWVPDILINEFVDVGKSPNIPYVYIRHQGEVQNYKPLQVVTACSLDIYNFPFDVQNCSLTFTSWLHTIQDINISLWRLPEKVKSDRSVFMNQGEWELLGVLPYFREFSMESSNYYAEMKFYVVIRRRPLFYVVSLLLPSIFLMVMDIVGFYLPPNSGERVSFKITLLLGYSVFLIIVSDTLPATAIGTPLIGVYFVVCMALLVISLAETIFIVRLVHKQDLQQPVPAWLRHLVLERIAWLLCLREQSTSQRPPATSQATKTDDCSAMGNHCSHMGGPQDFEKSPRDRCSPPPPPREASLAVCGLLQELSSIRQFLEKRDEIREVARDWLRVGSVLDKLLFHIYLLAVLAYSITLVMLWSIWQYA
PDE4D2, sequence (Q08499 303-809): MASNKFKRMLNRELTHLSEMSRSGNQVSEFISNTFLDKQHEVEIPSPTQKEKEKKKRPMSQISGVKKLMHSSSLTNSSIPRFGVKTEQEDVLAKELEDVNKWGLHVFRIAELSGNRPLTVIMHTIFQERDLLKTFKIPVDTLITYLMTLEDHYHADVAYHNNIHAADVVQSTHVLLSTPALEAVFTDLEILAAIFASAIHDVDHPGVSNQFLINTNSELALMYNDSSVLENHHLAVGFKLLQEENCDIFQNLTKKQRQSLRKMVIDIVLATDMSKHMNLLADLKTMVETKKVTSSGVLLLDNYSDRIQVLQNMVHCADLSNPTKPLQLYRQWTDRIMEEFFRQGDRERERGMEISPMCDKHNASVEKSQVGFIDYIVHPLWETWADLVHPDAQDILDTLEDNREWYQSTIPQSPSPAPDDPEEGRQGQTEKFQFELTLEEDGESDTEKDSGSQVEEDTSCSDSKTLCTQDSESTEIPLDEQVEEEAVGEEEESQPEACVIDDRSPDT
T10 sequence (P28223 whole entry): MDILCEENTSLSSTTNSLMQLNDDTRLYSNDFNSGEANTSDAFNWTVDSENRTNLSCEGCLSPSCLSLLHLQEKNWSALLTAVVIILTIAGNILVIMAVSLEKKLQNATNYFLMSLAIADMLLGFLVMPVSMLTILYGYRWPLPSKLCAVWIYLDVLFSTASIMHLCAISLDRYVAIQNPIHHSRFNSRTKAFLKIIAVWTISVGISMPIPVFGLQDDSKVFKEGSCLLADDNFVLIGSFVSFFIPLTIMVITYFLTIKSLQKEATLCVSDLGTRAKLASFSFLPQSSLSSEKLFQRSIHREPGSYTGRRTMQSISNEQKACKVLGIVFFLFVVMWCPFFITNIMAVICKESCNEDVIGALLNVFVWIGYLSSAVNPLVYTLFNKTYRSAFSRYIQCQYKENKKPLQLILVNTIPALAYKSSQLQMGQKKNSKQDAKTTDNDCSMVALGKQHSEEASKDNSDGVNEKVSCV
T13 sequence (P35372 whole entry): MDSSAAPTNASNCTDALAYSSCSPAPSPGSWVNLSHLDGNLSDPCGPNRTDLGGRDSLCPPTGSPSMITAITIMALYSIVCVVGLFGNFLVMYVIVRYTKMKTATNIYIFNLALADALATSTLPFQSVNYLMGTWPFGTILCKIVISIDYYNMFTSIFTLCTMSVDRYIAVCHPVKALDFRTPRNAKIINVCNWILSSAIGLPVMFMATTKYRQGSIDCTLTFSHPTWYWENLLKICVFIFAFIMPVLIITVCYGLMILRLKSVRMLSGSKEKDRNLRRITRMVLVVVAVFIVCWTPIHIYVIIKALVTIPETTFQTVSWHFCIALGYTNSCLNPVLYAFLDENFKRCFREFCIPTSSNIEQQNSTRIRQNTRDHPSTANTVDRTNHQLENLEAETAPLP
T12 sequence (P20309 whole entry): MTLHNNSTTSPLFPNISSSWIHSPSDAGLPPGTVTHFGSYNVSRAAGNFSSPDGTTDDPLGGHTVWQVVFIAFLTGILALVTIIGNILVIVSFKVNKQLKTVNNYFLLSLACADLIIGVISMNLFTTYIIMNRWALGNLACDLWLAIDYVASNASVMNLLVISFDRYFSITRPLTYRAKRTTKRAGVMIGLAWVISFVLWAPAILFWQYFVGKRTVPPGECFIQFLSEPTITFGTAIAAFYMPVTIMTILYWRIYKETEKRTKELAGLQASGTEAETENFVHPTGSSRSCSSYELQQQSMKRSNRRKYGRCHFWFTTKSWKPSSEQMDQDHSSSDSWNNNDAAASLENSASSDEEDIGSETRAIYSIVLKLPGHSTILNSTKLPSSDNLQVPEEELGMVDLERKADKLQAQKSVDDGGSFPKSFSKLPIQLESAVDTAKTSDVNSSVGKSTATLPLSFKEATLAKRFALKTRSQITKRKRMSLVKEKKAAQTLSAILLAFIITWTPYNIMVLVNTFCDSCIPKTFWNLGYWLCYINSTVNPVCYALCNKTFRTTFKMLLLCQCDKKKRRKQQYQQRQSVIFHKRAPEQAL
T4 sequence (P35367 whole entry): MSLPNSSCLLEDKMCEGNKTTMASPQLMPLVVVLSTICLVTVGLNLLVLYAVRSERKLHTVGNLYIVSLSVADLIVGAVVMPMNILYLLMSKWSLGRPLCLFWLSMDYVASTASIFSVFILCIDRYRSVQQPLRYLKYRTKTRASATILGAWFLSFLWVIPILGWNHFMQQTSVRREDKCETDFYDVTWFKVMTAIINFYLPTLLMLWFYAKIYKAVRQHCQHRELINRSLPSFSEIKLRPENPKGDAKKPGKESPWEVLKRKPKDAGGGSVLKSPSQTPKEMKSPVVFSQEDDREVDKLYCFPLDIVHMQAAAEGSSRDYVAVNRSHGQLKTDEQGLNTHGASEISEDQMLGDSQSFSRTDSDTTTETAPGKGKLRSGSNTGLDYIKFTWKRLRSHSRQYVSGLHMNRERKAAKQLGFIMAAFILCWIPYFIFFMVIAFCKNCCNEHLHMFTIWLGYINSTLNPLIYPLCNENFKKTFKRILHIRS
T6 sequence (P41595 whole entry): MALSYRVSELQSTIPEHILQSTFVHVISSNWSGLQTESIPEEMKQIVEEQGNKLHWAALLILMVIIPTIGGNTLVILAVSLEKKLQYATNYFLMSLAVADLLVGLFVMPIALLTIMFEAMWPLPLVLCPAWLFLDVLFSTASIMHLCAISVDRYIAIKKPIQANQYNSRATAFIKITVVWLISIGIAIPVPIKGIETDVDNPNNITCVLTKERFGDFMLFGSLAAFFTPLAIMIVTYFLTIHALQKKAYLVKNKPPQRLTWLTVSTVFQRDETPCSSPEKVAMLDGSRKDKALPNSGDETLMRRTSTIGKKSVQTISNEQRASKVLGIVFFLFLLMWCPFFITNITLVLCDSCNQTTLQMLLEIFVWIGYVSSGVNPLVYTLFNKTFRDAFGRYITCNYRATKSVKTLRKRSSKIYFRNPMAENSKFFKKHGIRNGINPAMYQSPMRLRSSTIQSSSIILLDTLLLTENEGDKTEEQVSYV
T8 sequence (P11229 whole entry): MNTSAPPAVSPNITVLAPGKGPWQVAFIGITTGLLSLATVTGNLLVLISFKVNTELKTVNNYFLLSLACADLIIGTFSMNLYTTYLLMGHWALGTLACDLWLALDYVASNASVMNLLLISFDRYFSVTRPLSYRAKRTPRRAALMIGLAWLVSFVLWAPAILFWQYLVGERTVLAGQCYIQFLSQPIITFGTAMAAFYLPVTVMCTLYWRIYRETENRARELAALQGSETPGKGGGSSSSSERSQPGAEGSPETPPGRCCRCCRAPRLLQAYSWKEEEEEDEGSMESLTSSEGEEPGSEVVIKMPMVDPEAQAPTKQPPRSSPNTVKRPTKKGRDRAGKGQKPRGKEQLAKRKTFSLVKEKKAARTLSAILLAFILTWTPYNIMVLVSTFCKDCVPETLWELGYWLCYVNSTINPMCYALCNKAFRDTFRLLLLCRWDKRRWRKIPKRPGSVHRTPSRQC

In the case of `CN1CCN(C2=Nc3cc(Cl)ccc3Nc3ccccc32)CC1` [CLZ, clozapine], the “mean CLZ plasma concentration as % of mean CNO plasma concentration” value ([1]; mice, 15 min after i.p. 3.5 mg/kg CNO) is reported as “approximately 3.3%”, the “free (CSF) concentration as % of the brain concentration” value ([1]; mice, after i.p. 1 mg/kg CLZ) is reported as “approximately 0.1%” and the “concentration in CSF” value ([1]; mice, all sampling points (15, 30, 60 min) after i.p. 3.5 mg/kg CNO, detection limit) is reported as 1 to 2.5 nM. The “decline within 60 min in plasma and brain tissue” value ([1]; mice, single injection of CLZ) was “approximately 2 fold”, the attentional accuracy (C57BL/6 J mice; CLZ 0.1 mg/kg i.p., p = 0.0439) was “mild decrease” and the “omissions (inattentiveness)” value (C57BL/6 J mice; CLZ 1 mg/kg i.p., p = 0.0108) was “mild increase”. For the same compound, the “behavioural changes in 5-CSRTT parameters” value (C57BL/6 J mice; CLZ 0.1, 0.3 and 1 mg/kg i.p., vs vehicle) was “did not produce any significant behavioural changes in most 5-CSRTT parameters”, the Kp (in vivo; C57BL/6J, CSF, 1 mg/kg) was about 0.01 and the concentration at 15 min (in vivo; CSF, 1 mg/kg) was 1.9 nM. It also gave a concentration at 15 min (in vivo; [6]) of about 427 nM, a concentration at 60 min (in vivo; [6]) of 406 nM and a Kp at 15 min (in vivo; brain, 1 mg/kg) of about 6. The concentration at 15 min (in vivo; brain, 1 mg/kg) was 2060 nM, the concentration at 60 min (in vivo; brain, 1 mg/kg) was 1020 nM and the Tmax (in vivo; plasma, brain and CSF, 1 mg/kg) was 15 min. It also gave a concentration at 15 min (in vivo; plasma, 1 mg/kg) of 344 nM and a concentration at 60 min (in vivo; plasma, 1 mg/kg) of 123 nM.

In the case of `c1ccc2c(c1)N=C(N1CCNCC1)c1ccccc1N2` [Cmpd-21, compound 21], the “competitive inhibition of ligand binding” value (M2 muscarinic receptor) is reported as over 50%, the “competitive inhibition of ligand binding” value (5-HT3 serotonin receptor) is reported as over 50% and the “competitive inhibition of ligand binding” value [2] is reported as over 50%. The inhibition (PDE4D2) was under 25%, the “competitive inhibition of ligand binding” value (D2 dopamine receptor) was over 50% and the inhibition (COX2) was 60%. The “competitive inhibition of ligand binding” value (H1 histamine receptor) was over 50%, the “competitive inhibition of ligand binding” value (α1A adrenoreceptor) was over 50% and the “competitive inhibition of ligand binding” value [3] was over 50%. For the same compound, the “competitive inhibition of ligand binding” value [4] was over 50%, the “competitive inhibition of ligand binding” value (κ opioid receptor) was over 50% and the “competitive inhibition of ligand binding” value (D1 dopamine receptor) was over 50%. For the same compound, the mean brain concentration [1, 7] was 722 nM, the “mean concentration in CSF” value [1, 7] was 52 nM and the “mean concentration in plasma” value [1, 7] was 5833 nM. For the same compound, the “CSF concentration as % of peak value” [1, 8] was 54%, the mean brain concentration [1, 8] was 1273 nM and the “plasma concentration as % of peak value” [1, 8] was 57%. The “time of peak plasma and CSF levels” value ([1]; mice, after 3.0 mg/kg Cmpd-21 i.p., earliest time point of measurement) was 15 min, the “conversion to CLZ or CNO” value ([1]; mice, data not shown) was “did not detect any conversion” and the inhibition (AChE) was under 25%. For the same compound, the “behavioural changes in 5-CSRTT parameters” value (C57BL/6 J mice; Cmpd-21 0.3, 1 and 3 mg/kg i.p.) was “did not produce any significant behavioural changes in any 5-CSRTT parameters”, the inhibition (Lck kinase) was under 25% and the inhibition (COX1) was under 25%. For the same compound, the “competitive inhibition of ligand binding” value (M1 muscarinic receptor) was over 50%, the “competitive inhibition of ligand binding” value (δ opioid receptor) was over 50% and the “competitive inhibition of ligand binding” value [5] was over 50%. For the same compound, the EC50 (hM4Di) was 2.95 nM, the EC50 (hM3Dq) was 1.7 nM and the “competitive inhibition of ligand binding” value (M3 muscarinic receptor) was over 50%. The inhibition (PDE3A) was under 25% and the “competitive inhibition of ligand binding” value (μ opioid receptor) was over 50%.

In the case of `Clc1ccc2c(c1)N=C(N1CCNCC1)c1ccccc1N2` [NorCLZ, norclozapine], the “detection of metabolite in plasma” value ([1]; mice, 15, 30, 60 min after i.p. 1 mg/kg CLZ) is reported as “detectable in all plasma samples”.
